Data published in ChEMBL document CHEMBL1131655 (Bioorg Med Chem Lett, 1998).

Experiments:
Adenosine receptor A1 [1] = molecular target: T1, Adenosine receptor A1 (Rattus norvegicus, UniProt P25099); assay: Binding affinity against adenosine A1 receptor in rat brain using [3H]R-PIA; assay type: tissue-based
T1 sequence (P25099 whole entry): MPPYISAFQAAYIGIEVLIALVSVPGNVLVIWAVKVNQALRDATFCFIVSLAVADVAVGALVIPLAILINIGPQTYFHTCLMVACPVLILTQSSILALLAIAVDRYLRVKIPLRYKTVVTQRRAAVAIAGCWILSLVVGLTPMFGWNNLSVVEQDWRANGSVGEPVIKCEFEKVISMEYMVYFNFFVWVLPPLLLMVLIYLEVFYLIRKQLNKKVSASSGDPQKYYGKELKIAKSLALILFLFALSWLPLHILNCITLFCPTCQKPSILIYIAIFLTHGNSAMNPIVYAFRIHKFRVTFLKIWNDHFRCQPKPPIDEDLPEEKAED

Adenosine receptor A1 [2] = molecular target: T2, Adenosine receptor A1 (Homo sapiens, UniProt P30542); assay: Binding against Human Adenosine A1 receptor
T2 sequence (P30542 whole entry): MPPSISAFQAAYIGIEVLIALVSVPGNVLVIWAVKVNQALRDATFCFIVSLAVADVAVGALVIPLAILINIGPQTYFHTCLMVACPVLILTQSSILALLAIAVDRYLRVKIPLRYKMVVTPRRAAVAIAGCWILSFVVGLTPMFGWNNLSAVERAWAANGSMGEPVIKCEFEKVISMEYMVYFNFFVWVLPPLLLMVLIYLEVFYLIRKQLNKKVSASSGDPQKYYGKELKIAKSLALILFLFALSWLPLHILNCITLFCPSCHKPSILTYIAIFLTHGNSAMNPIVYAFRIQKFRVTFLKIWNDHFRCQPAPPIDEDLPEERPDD

[3] = molecular target: T3, Adenosine receptor A1 (Homo sapiens) (UniProt P30542); assay: Percentage extracellular acidification rate was evaluated against human adenosine A1 receptor expressed in CHO-K1 cells; assay type: functional, cell-based
T3 sequence (whole entry): T2 sequence (P30542 whole entry)

[4] = molecular target: T3, Adenosine receptor A1 (Homo sapiens); assay: Emax for R-PIA against Human Adenosine A1 receptor

Ki (Adenosine receptor A1 [1])	EC50 (Adenosine receptor A1 [2])	ECAR [3]	Emax [4]	SMILES
1020 nM	100000 nM	122%	90%	NC1=Nc2c(ncn2C2O[C@@H](CO)[C@H](O)[C@@H]2O)C2=N[C@H](c3ccccc3)CN12 (stereo partly drawn)
610 nM		117%		NC1=Nc2c(ncn2C2O[C@@H](CO)[C@H](O)[C@@H]2O)C2=N[C@@H](c3ccccc3)CN12 (stereo partly drawn)
		106%		OC[C@@H]1OC(n2cnc3c2N=CN2C[C@H](c4ccccc4)N=C32)[C@@H](O)[C@H]1O (stereo partly drawn)
		113%		OC[C@@H]1OC(n2cnc3c2N=CN2C[C@@H](c4ccccc4)N=C32)[C@@H](O)[C@H]1O (stereo partly drawn)
